Source: patent US8435752B2, “Gene polymorphisms predictive for dual TKI therapy” (University of Southern California, priority 2007, dated 2013)
Read-outs that look alike come from different tables or passages of the source.

Test system: advanced or metastatic gastric cancer patients
Conditions: for median OS: Experiment No. 1, p=0.07; for OS / response rates: Experiment No. 2; for OS: p=0.04; for response rates: p<0.01

Compound: CS(=O)(=O)CCNCc1ccc(-c2ccc3ncnc(Nc4ccc(OCc5cccc(F)c5)c(Cl)c4)c3c2)o1 [lapatinib, Lapatinib]
- median OS (A/A genotype of IL-8 T251A polymorphism, blood samples from 40 patients): 10 months
- median OS (first listed of the other 2 genotypes of IL-8 T251A): 3 months
- median OS (second listed of the other 2 genotypes of IL-8 T251A): 3 months
- OS (IL-8 T251A A/A, blood samples from 42 patients): 10 months
- OS (IL-8 T251A T/A): 5 months
- OS (IL-8 T251A T/T): 3 months
- response rates (patients with A allele of IL-8 T251A): better response rates
- response rates (patients with T allele of VEGF C936T): better response rates
- median overall survival (OS) (comparison group to higher HER2 gene expression (lower HER2), p=0.005): 3 months
- median overall survival (OS) (comparison group to lower IL-8 gene expression (higher IL-8), p=0.03): 3 months
- median overall survival (OS) (patients with higher intratumoral HER2 gene expression, p=0.005 vs lower): 6 months
- median overall survival (OS) (patients with lower intratumoral IL-8 gene expression, p=0.03 vs higher): 6 months
